Reference: the supplement of paper PMC13380429

Key:
Conditions in all cases: 72 h
[1] = system: HepG2; experiment: relative viability EC50 (midpoint between 100% and the lowest measured viability); higher = less toxic
[2] = system: Caco-2; experiment: as above
[3] = system: Vero E6; experiment: as above
[4] = system: U2OS; experiment: as above
[5] = system: Calu-3; experiment: as above
[6] = system: HepG2; experiment: drug sensitivity score (DSS) for viability; higher = more toxic; extreme values may be limits of the assay
[7] = system: Caco-2; experiment: as above
[8] = system: Vero E6; experiment: as above
[9] = system: U2OS; experiment: as above
[10] = system: Calu-3; experiment: as above
[11] = system: HepG2; experiment: cell viability relative to DMSO; higher = less toxic
[12] = system: Caco-2; experiment: as above
[13] = system: Vero E6; experiment: as above
[14] = system: U2OS; experiment: as above
[15] = system: Calu-3; experiment: as above

Row | Structure (SMILES) | relative viability EC50 [1] | relative viability EC50 [2] | relative viability EC50 [3] | relative viability EC50 [4] | relative viability EC50 [5] | drug sensitivity score [6] | drug sensitivity score [7] | drug sensitivity score [8] | drug sensitivity score [9] | drug sensitivity score [10] | cell viability ([11]; 1 nM) | cell viability ([11]; 10 nM) | cell viability ([11]; 100 nM) | cell viability ([11]; 1000 nM) | cell viability ([11]; 10000 nM) | cell viability ([12]; 1 nM) | cell viability ([12]; 10 nM) | cell viability ([12]; 100 nM) | cell viability ([12]; 1000 nM) | cell viability ([12]; 10000 nM) | cell viability ([13]; 1 nM) | cell viability ([13]; 10 nM) | cell viability ([13]; 100 nM) | cell viability ([13]; 1000 nM) | cell viability ([13]; 10000 nM) | cell viability ([14]; 1 nM) | cell viability ([14]; 10 nM) | cell viability ([14]; 100 nM) | cell viability ([14]; 1000 nM) | cell viability ([14]; 10000 nM) | cell viability ([15]; 1 nM) | cell viability ([15]; 10 nM) | cell viability ([15]; 100 nM) | cell viability ([15]; 1000 nM) | cell viability ([15]; 10000 nM)
1 | O=NO [sodium-nitrite] | > 10 µM | > 10 µM | > 10 µM | > 10 µM | > 10 µM | 0 | 0 | 0 | 0 | 0 | 105% | 102% | 97.4% | 98% | 101% | 87.7% | 93.5% | 94% | 92.3% | 97.3% | 106% | 113% | 95.2% | 103% | 99.2% | 95.4% | 97.1% | 100% | 94.2% | 97.4% | 94.3% | 100% | 102% | 94.8% | 91.8%
2 | Cn1cc(-c2ccc(S(=O)(=O)n3ccc(/C=C/C(=O)Nc4ccccc4N)c3)cc2)cn1 [4SC-202] | 0.623 µM | 1.07 µM | 1.12 µM | 1.36 µM | 0.26 µM | 10.1 | 6.6 | 7.2 | 8.8 | 13.3 | 88.5% | 102% | 92.7% | 52.4% | 25.8% | 85.2% | 96.9% | 102% | 73.4% | 42% | 96.7% | 104% | 91% | 69.9% | 30.8% | 95.8% | 96.6% | 102% | 72.5% | 13.3% | 91.7% | 86% | 78.7% | 45.9% | 23.8%
3 | CN(C(=O)CN1C(=O)COc2cc(Cl)c(Cl)cc21)[C@@H](CN1CCCC1)c1ccc(-c2cccc(C(N)=O)c2)cc1 | 3.09 µM | 2.94 µM | 2.94 µM | 2.68 µM | 3.79 µM | 5.1 | 5.5 | 5.8 | 6.2 | 4.3 | 95% | 104% | 91.5% | 99% | 10.5% | 97.9% | 99% | 101% | 97.1% | 7.2% | 96.9% | 97% | 94.9% | 97.1% | 2.8% | 100% | 97.1% | 104% | 94.1% | 3.5% | 109% | 111% | 102% | 114% | 7%
4 | c1ccc(C2CC2)c(OCC2=NCCN2)c1 [cirazoline] | > 10 µM | > 10 µM | > 10 µM | > 10 µM | > 10 µM | 0 | 0 | 0 | 0 | 0 | 95.5% | 97.6% | 94.8% | 107% | 110% | 97.1% | 95% | 102% | 90.4% | 113% | 93.7% | 97.2% | 95.8% | 106% | 107% | 94.2% | 95.7% | 99.5% | 97.6% | 98.1% | 108% | 97.2% | 99.3% | 107% | 98.6%
5 | N=C(N)N/N=C/c1c(Cl)cccc1Cl [guanaben-acetate] | > 10 µM | > 10 µM | > 10 µM | > 10 µM | > 10 µM | 0 | 0 | 0 | 0 | 0 | 98.1% | 102% | 102% | 93.9% | 101% | 94.3% | 95.8% | 87.3% | 95.4% | 90.7% | 95.3% | 102% | 100% | 97.5% | 97.7% | 96.9% | 96.2% | 94.6% | 97.7% | 91.5% | 91.7% | 94.2% | 91% | 99.7% | 92.1%
6 | CCN(CC)CCOCCOC(=O)C1(c2ccccc2)CCCC1 [carbetapentane] | > 10 µM | > 10 µM | > 10 µM | > 10 µM | > 10 µM | 0 | 0 | 0 | 0 | 0 | 104% | 103% | 97.2% | 97.5% | 94.4% | 97.9% | 94.3% | 94.3% | 105% | 91.1% | 103% | 93.9% | 108% | 104% | 97.6% | 99.4% | 102% | 99.5% | 101% | 95.5% | 90.6% | 93.8% | 104% | 97.6% | 100%
7 | C[N+]12CCCCC1CCC(=C(c1cccs1)c1cccs1)C2 (stereo not given) [tiquizium] | > 10 µM | > 10 µM | > 10 µM | > 10 µM | > 10 µM | 0 | 0 | 0 | 0 | 0 | 103% | 86.9% | 98.9% | 93.7% | 94% | 89.3% | 96.3% | 89.7% | 90.3% | 100% | 106% | 88.6% | 98.3% | 87% | 100% | 98.1% | 99.2% | 94.3% | 103% | 102% | 100% | 102% | 97.8% | 111% | 99%
8 | COc1nc(C)nc(Cl)c1NC1=NCCN1 [moxonidine] | > 10 µM | > 10 µM | > 10 µM | > 10 µM | > 10 µM | 0 | 0 | 0 | 0 | 0 | 103% | 101% | 99.3% | 104% | 95.5% | 97.1% | 95.6% | 95.8% | 105% | 88.7% | 102% | 100% | 93.2% | 94.5% | 106% | 98.7% | 101% | 97.1% | 102% | 99.3% | 96.2% | 93.5% | 90% | 101% | 97.5%
9 | C[C@@H]1NC(=O)[C@@H]2CCCN2C(=O)[C@H](CC(N)=O)NC(=O)[C@@H]2CSSC[C@H](N)C(=O)N[C@H]3CSSC[C@H](NC1=O)C(=O)N[C@@H]([C@@H](C)O)C(=O)NCC(=O)N[C@H](C(=O)N[C@@H](Cc1ccc(O)cc1)C(=O)O)CSSC[C@H](NC(=O)[C@H](Cc1ccc(O)cc1)NC(=O)[C@H](CCC(=O)O)NC3=O)C(=O)N2 [linaclotide] | > 10 µM | > 10 µM | > 10 µM | > 10 µM | > 10 µM | 0 | 0 | 0 | 0 | 0 | 93.6% | 93.8% | 102% | 88.9% | 94.2% | 98.8% | 98.9% | 104% | 110% | 95.1% | 100% | 106% | 104% | 91.1% | 103% | 101% | 101% | 97.3% | 100% | 95.8% | 90.3% | 91.2% | 83.9% | 107% | 97.2%
10 | CN/C(=N\c1ccc(C2=NNC(=O)CC2C)cc1)NC#N (stereo not given) [siguazodan] | > 10 µM | > 10 µM | > 10 µM | > 10 µM | > 10 µM | 0 | 0 | 0 | 0 | 0 | 114% | 91.1% | 104% | 107% | 105% | 105% | 97.2% | 97.2% | 96.6% | 90.6% | 103% | 104% | 104% | 98.9% | 105% | 103% | 103% | 97.6% | 105% | 99.7% | 102% | 100% | 98.9% | 102% | 98.6%
11 | CCOC(=O)[C@H](CCc1ccccc1)N[C@H]1CCc2ccccc2N(CC(=O)O)C1=O [benazepril] | > 10 µM | > 10 µM | > 10 µM | > 10 µM | > 10 µM | 0 | 0 | 0 | 0 | 0 | 112% | 101% | 95.4% | 104% | 96.9% | 99.1% | 90.8% | 106% | 101% | 94.6% | 103% | 104% | 96.1% | 109% | 99.2% | 99.1% | 94% | 102% | 93.8% | 93.4% | 94.9% | 97.5% | 111% | 97.8% | 108%
12 | Cc1ccc(=O)n(-c2ccc(O)cc2)c1 [F351] | > 10 µM | > 10 µM | > 10 µM | > 10 µM | > 10 µM | 0 | 0 | 0 | 0 | 0 | 105% | 93.1% | 108% | 101% | 96.9% | 92.1% | 92.6% | 96.7% | 100% | 93% | 98.1% | 100% | 94.4% | 99.1% | 95.4% | 99.2% | 97.3% | 97.2% | 100% | 97.4% | 90.2% | 105% | 96.9% | 85.2% | 97.4%
13 | O=C1CS[C@@H](c2ccccc2Cl)c2cc(Cl)ccc2N1 (racemic) | > 10 µM | > 10 µM | > 10 µM | > 10 µM | > 10 µM | 0 | 0 | 0 | 0 | 0 | 100% | 98.7% | 96.4% | 110% | 102% | 92.3% | 101% | 92.2% | 98.6% | 90.1% | 96.6% | 97.6% | 99.1% | 97.8% | 104% | 106% | 104% | 94.4% | 101% | 102% | 94.5% | 100% | 96.7% | 100% | 105%
